Article PMC6008465 (British Journal of Cancer, 2018)
Marks after values point to notes of the source that are not given here.

Experiments:
[1] = tested on: advanced solid tumours; test: Part A tumour response (RECIST 1.0); format: in vivo, human
Protocol: The primary objectives of this phase 1 study were to evaluate the safety, tolerability, and MTD of once-weekly (Schedule I) and twice-weekly (Schedule II) dosing. […] Toxicity was managed by dose interruption, reduction, and/or discontinuation. Only Cycle 1 adverse events (AEs) were evaluable as DLTs. […] All ongoing patients could continue at 320 mg/m^2, regardless of initial starting dose.
(§1) Efficacy was assessed by tumour response determined by investigator review of computed tomography/magnetic resonance imaging scans using Response Evaluation Criteria in Solid tumours version 1.0 (RECIST).[17]

[2] = tested on: metastatic BRAF-mutated or WT melanoma; test: Part B tumour response (RECIST 1.0); format: in vivo, human; settings: for Duration of SD: one patient; for Median (95% CI) duration of PFS / Median (95% CI) duration of SD: Kaplan-Meier estimate
Protocol: In Part B, an adaptive study design was planned to define an optimal dosing schedule. […] One dose escalation (from 160 mg/m^2 to 320 mg/m^2) was allowed in Schedule II for MTD determination. […] Toxicity was managed as before. Up to 30 patients with BRAF-mutated melanoma and up to 29 patients with BRAF-WT melanoma were to be enrolled in Schedule I. Up to 30 patients were to be enrolled into Schedule II once the MTD was confirmed.
as §1

[3] = tested on: IL-6; settings: quoted in discussion, no reference given, cited from earlier work
[4] = tested on: IL-8; design: IC50 for inhibition of spontaneous secretion of IL-8: unit not given here; settings: quoted in discussion, no reference given, cited from earlier work
[5] = tested on: BRAF-mutated human cancer xenograft models; settings: Q4D x3 schedule; cited from earlier work
[6] = preclinical; cited from earlier work
[7] = Part B, BRAF-WT 320 mg/m^2 once weekly (n=7)
[8] = Part B, BRAF-mutated 160 mg/m^2 twice weekly (n=3)
[9] = Part B, BRAF-mutated 320 mg/m^2 once weekly (n=20)

SMILES: CCNc1cc(O)c2c(c1)/C=C/C[C@H](O)[C@H](O)C(=O)/C=C\[C@@H](C)[C@H](C)OC2=O [E6201, (3S,4R,5Z,8S,9S,11E)-14-(ethylamino)-8,9,16-trihydroxy-3,4-dimethyl-3,4,9,19-tetrahydro-1H-2-benzoxacyclotetradecine-1,7 (8H)-dione]
- Best overall response: Complete response (CR) ([1]; 20 mg/m^2 (n=4)): 0 n (%)
- Best overall response: Not evaluable (NE) ([1]; 20 mg/m^2 (n=4)): 0 n (%)
- Best overall response: Partial response (PR) ([1]; 20 mg/m^2 (n=4)): 0 n (%)
- Best overall response: Progressive disease (PD) ([1]; 20 mg/m^2 (n=4)): 3 (75.0) n (%)
- Disease control rate (CR+PR+SD) ([1]; 20 mg/m^2 (n=4)): 1 (25.0) n (%)
- Overall response rate (CR+PR) ([1]; 20 mg/m^2 (n=4)): 0 n (%)
- Best overall response: Complete response (CR) ([1]; 40 mg/m^2 (n=3)): 0 n (%)
- Best overall response: Not evaluable (NE) ([1]; 40 mg/m^2 (n=3)): 0 n (%)
- Best overall response: Partial response (PR) ([1]; 40 mg/m^2 (n=3)): 0 n (%)
- Best overall response: Progressive disease (PD) ([1]; 40 mg/m^2 (n=3)): 1 (33.3) n (%)
- Disease control rate (CR+PR+SD) ([1]; 40 mg/m^2 (n=3)): 2 (66.7) n (%)
- Overall response rate (CR+PR) ([1]; 40 mg/m^2 (n=3)): 0 n (%)
- Duration of SD ([1]; 40 mg/m^2, patient with biliary duct cancer (BRAF-WT)): 4 cycles
- Duration of SD ([1]; 40 mg/m^2, patient with colon cancer (BRAF-WT)): 6 cycles
- Best overall response: Complete response (CR) ([1]; 80 mg/m^2 (n=3)): 0 n (%)
- Best overall response: Not evaluable (NE) ([1]; 80 mg/m^2 (n=3)): 0 n (%)
- Best overall response: Partial response (PR) ([1]; 80 mg/m^2 (n=3)): 0 n (%)
- Best overall response: Progressive disease (PD) ([1]; 80 mg/m^2 (n=3)): 2 (66.7) n (%)
- Disease control rate (CR+PR+SD) ([1]; 80 mg/m^2 (n=3)): 1 (33.3) n (%)
- Overall response rate (CR+PR) ([1]; 80 mg/m^2 (n=3)): 0 n (%)
- Duration of SD ([1]; 80 mg/m^2, patient with BRAF-WT uveal melanoma): 15 cycles
- Best overall response: Complete response (CR) ([1]; 160 mg/m^2 (n=3)): 0 n (%)
- Best overall response: Not evaluable (NE) ([1]; 160 mg/m^2 (n=3)): 1 (33.3) n (%)
- Best overall response: Partial response (PR) ([1]; 160 mg/m^2 (n=3)): 0 n (%)
- Best overall response: Progressive disease (PD) ([1]; 160 mg/m^2 (n=3)): 2 (66.7) n (%)
- Disease control rate (CR+PR+SD) ([1]; 160 mg/m^2 (n=3)): 0 n (%)
- Overall response rate (CR+PR) ([1]; 160 mg/m^2 (n=3)): 0 n (%)
- Best overall response: Complete response (CR) ([1]; 320 mg/m^2 (n=7)): 0 n (%)
- Best overall response: Not evaluable (NE) ([1]; 320 mg/m^2 (n=7)): 1 (14.3) n (%)
- Best overall response: Partial response (PR) ([1]; 320 mg/m^2 (n=7)): 0 n (%)
- Best overall response: Progressive disease (PD) ([1]; 320 mg/m^2 (n=7)): 4 (57.1) n (%)
- Disease control rate (CR+PR+SD) ([1]; 320 mg/m^2 (n=7)): 1 (14.3) n (%)
- Overall response rate (CR+PR) ([1]; 320 mg/m^2 (n=7)): 0 n (%)
- Best overall response: Complete response (CR) ([1]; 400 mg/m^2 (n=1)): 0 n (%)
- Best overall response: Not evaluable (NE) ([1]; 400 mg/m^2 (n=1)): 0 n (%)
- Best overall response: Partial response (PR) ([1]; 400 mg/m^2 (n=1)): 0 n (%)
- Best overall response: Progressive disease (PD) ([1]; 400 mg/m^2 (n=1)): 0 n (%)
- Disease control rate (CR+PR+SD) ([1]; 400 mg/m^2 (n=1)): 1 (100) n (%)
- Overall response rate (CR+PR) ([1]; 400 mg/m^2 (n=1)): 0 n (%)
- Duration of SD ([1]; 400 mg/m^2, patient with gastric carcinoid (BRAF status unknown)): 4 cycles
- Best overall response: Complete response (CR) ([1]; 480 mg/m^2 (n=4)): 0 n (%)
- Best overall response: Not evaluable (NE) ([1]; 480 mg/m^2 (n=4)): 0 n (%)
- Best overall response: Partial response (PR) ([1]; 480 mg/m^2 (n=4)): 1 (25.0)^a n (%)
- Best overall response: Progressive disease (PD) ([1]; 480 mg/m^2 (n=4)): 0 n (%)
- Disease control rate (CR+PR+SD) ([1]; 480 mg/m^2 (n=4)): 3 (75.0) n (%)
- Overall response rate (CR+PR) ([1]; 480 mg/m^2 (n=4)): 1 (25.0) n (%)
- Duration of SD ([1]; 480 mg/m^2, patient with papillary thyroid cancer (BRAF-WT)): 4 cycles
- Duration of partial response ([1]; BRAF-mutated papillary thyroid cancer patient, 480 mg/m^2): 4 cycles
- Best overall response: Complete response (CR) ([1]; Total (N=25)): 0 n (%)
- Best overall response: Not evaluable (NE) ([1]; Total (N=25)): 2 (8.0) n (%)
- Best overall response: Partial response (PR) ([1]; Total (N=25)): 1 (4.0) n (%)
- Best overall response: Progressive disease (PD) ([1]; Total (N=25)): 12 (48.0) n (%)
- Disease control rate (CR+PR+SD) ([1]; Total (N=25)): 9 (36.0) n (%)
- Overall response rate (CR+PR) ([1]; Total (N=25)): 1 (4.0) n (%)
- Number of partial responses (PR) ([1]; V600E BRAF-mutated papillary thyroid cancer, 480 mg/m^2 qw): One
- Patients with SD for ≥4 cycles (3.7 months) ([1]; five patients): 20.0%
- Patients with PR / patients ([2]; Part B, BRAF-WT): 1/7
- Patients with SD / patients ([2]; Part B, BRAF-WT): 1/7
- Complete response (CR) [2, 7]: 0 n (%)
- Disease control rate (CR+PR+SD) [2, 7]: 2 (28.6) n (%)
- Not evaluable (NE) [2, 7]: 1 (14.3) n (%)
- Overall response rate (CR+PR) [2, 7]: 1 (14.3) n (%)
- Partial response (PR) [2, 7]: 1 (14.3)^b n (%)
- Progressive disease (PD) [2, 7]: 2 (28.6) n (%)
- Duration of SD ([2]; Part B, BRAF-WT 320 mg/m^2 once weekly): 4 cycles
- Disease control rate (DCR; complete response + PR + SD) ([2]; Part B, BRAF-WT melanoma (2/7)): 28.6%
- Complete response (CR) [2, 8]: 0 n (%)
- Disease control rate (CR+PR+SD) [2, 8]: 1 (33.3) n (%)
- Not evaluable (NE) [2, 8]: 0 n (%)
- Overall response rate (CR+PR) [2, 8]: 0 n (%)
- Partial response (PR) [2, 8]: 0 n (%)
- Progressive disease (PD) [2, 8]: 1 (33.3) n (%)
- Median (95% CI) duration of PFS [2, 8]: 83.5 (29.0–138.0) days
- Median (95% CI) duration of SD [2, 8]: 138.0 (29.0–138.0) days
- Duration of SD ([2]; Part B, BRAF-mutated 160 mg/m^2 twice weekly): > 4 cycles
- Patients with SD for ≥4 cycles ([2]; Part B, BRAF-mutated 320 mg/m^2 once weekly): 5 patients
- Complete response (CR) [2, 9]: 0 n (%)
- Disease control rate (CR+PR+SD) [2, 9]: 9 (45.0) n (%)
- Not evaluable (NE) [2, 9]: 1 (5.0) n (%)
- Overall response rate (CR+PR) [2, 9]: 2 (10.0) n (%)
- Partial response (PR) [2, 9]: 2 (10.0)^a n (%)
- Progressive disease (PD) [2, 9]: 6 (30.0) n (%)
- Median (95% CI) duration of PFS [2, 9]: 73.0 (26.0–166.0) days
- Median (95% CI) duration of SD [2, 9]: 73.0 (29.0–166.0) days
- Patients with PR / patients ([2]; Part B, BRAF-mutated melanoma): 2/23
- Patients with SD / patients ([2]; Part B, BRAF-mutated melanoma): 8/23
- Disease control rate (DCR; complete response + PR + SD) ([2]; Part B, BRAF-mutated melanoma (10/23)): 43.5%
- Complete response (CR) ([2]; Part B, Total (N=30)): 0 n (%)
- Disease control rate (CR+PR+SD) ([2]; Part B, Total (N=30)): 12 (40.0) n (%)
- Not evaluable (NE) ([2]; Part B, Total (N=30)): 2 (6.7) n (%)
- Overall response rate (CR+PR) ([2]; Part B, Total (N=30)): 3 (10.0) n (%)
- Partial response (PR) ([2]; Part B, Total (N=30)): 3 (10.0) n (%)
- Progressive disease (PD) ([2]; Part B, Total (N=30)): 9 (30.0) n (%)
- Number of partial responses (PR) ([2]; Part B, all): three
- Patients with SD for ≥4 cycles (3.7 months) ([2]; Part B, all groups): seven
- Number of partial responses (PR) ([2]; Part B, BRAF-WT melanoma, 320 mg/m^2 once-weekly): 1
- Number of partial responses (PR) ([2]; Part B, V600E BRAF-mutated melanoma, 320 mg/m^2 once-weekly): 2
- Response of brain metastases ([2]; one patient with BRAF-mutated melanoma who achieved a PR): brain metastases that responded to treatment
- IC50 for inhibition of spontaneous secretion of IL-6 [3]: 4.09 ng/mL
- IC50 ([3]; read-out: IC50 for inhibition of spontaneous secretion of IL-6): 0.0105 µM
- IC50 for inhibition of spontaneous secretion of IL-8 [4]: 8.19
- IC50 ([4]; read-out: IC50 for inhibition of spontaneous secretion of IL-8): 0.0218 µM
- Duration of significant and prolonged anti-tumour activity from first dose [5]: > 20 days
- t1/2 of E6201 [6]: 3 to 6 h
